Assay results published in US20060148725A1, “Selective 11beta HSD inhibitors and methods of use thereof” (The Miriam Hospital, priority 2001, published 2006).

What was measured:
11β-HSD2 Dehydrogenase = target: T1, 11β-HSD2 Dehydrogenase (Ovis aries, UniProt P50168); assay: Inhibition of 11β-HSD2 dehydrogenase activity (Table 1); type: biochemical, sheep; details: inhibition class in words
T1 construct: using 50 nM corticosterone substrate concentration and sheep kidney microsomes; from tissue; host or cells: sheep kidney microsomes
T1 sequence (P50168 1-427): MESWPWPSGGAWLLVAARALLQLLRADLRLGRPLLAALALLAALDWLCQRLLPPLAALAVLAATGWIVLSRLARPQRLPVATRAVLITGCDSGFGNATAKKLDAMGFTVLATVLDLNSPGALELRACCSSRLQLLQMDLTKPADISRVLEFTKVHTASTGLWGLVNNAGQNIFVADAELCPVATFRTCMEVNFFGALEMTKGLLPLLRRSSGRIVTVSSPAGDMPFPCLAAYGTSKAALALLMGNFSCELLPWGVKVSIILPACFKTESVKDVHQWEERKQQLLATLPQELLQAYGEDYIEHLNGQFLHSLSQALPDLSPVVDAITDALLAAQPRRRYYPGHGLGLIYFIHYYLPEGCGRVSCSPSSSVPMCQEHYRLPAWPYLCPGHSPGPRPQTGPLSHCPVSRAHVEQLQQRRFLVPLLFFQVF

11β-HSD1 Reductase = 11β-HSD1 Reductase (Rattus norvegicus, UniProt P16232); assay: Inhibition of 11β-HSD1 reductase activity (Table 1); details: inhibition class in words
Chain of 11β-HSD1 Reductase (P16232 whole entry): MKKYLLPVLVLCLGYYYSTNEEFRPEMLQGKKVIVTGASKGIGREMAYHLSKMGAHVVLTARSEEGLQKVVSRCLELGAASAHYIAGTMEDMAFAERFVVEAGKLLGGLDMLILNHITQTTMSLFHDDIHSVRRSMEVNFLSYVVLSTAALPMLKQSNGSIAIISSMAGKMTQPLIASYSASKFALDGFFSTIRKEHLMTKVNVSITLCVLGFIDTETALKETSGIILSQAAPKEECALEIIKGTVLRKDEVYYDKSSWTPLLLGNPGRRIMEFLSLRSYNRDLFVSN

11β-HSD1 Dehydrogenase = 11β-HSD1 Dehydrogenase (Rattus norvegicus, UniProt P16232); assay: Inhibition of 11β-HSD1 dehydrogenase activity (Table 1); type: biochemical; details: inhibition class in words
Chain of 11β-HSD1 Dehydrogenase (P16232 whole entry): as above

rat aortic rings = details: aortic rings incubated with corticosterone; previously demonstrated; cited from earlier work

With `C[C@]12CC[C@H](O)C[C@H]1CC[C@@H]1[C@H]2[C@@H](O)C[C@@]2(C)[C@@H]1CC[C@@H]2O` [3α,5β-reduced-11β-OH-testosterone] the “11β-HSD2 Dehydrogenase” value (11β-HSD2 Dehydrogenase) was “No Inhibition”, the “11β-HSD1 Reductase” value (11β-HSD1 Reductase) was “No Inhibition” and the “11β-HSD1 Dehydrogenase” value (11β-HSD1 Dehydrogenase) was “Moderate Inhibitor”.

For `C[C@]12CC[C@H](O)C[C@@H]1CC[C@H]1[C@@H]3CC[C@H](O)[C@@]3(C)CC(=O)[C@@H]12` [3α,5α-reduced-11-keto-testosterone], the “11β-HSD1 Reductase” value (11β-HSD1 Reductase) was “Selective Inhibitor” and the “11β-HSD1 Dehydrogenase” value (11β-HSD1 Dehydrogenase) was “No Inhibition”.

In the case of `C[C@]12C[C@H](O)[C@@H]3[C@@H](CCC4=CC(=O)CC[C@@]43C)[C@H]1CC[C@@H]2O` [11β-OH-testosterone], the “11β-HSD2 Dehydrogenase” value (11β-HSD2 Dehydrogenase) is reported as “Inhibitor (Non-Selective)”, the “11β-HSD1 Reductase” value (11β-HSD1 Reductase) is reported as “No Inhibition” and the “11β-HSD1 Dehydrogenase” value (11β-HSD1 Dehydrogenase) is reported as “Inhibitor (Non-Selective)”.

With `CC(=O)[C@H]1CC[C@@H]2[C@@H]3CCC4=CC(=O)CC[C@]4(C)[C@@H]3C(=O)C[C@]12C` [11-Keto-progesterone] the “11β-HSD2 Dehydrogenase” value (11β-HSD2 Dehydrogenase) was “Potent Inhibitor”, the “11β-HSD1 Reductase” value (11β-HSD1 Reductase) was “Selective Inhibitor” and the “11β-HSD1 Dehydrogenase” value (11β-HSD1 Dehydrogenase) was “No Inhibition”.

In the case of `C[C@]12CC[C@H](O)C[C@@H]1CC[C@@H]1[C@@H]2C(=O)C[C@]2(C)C(=O)CC[C@@H]12` [3α,5α-reduced-11-keto-androstenedione], the “11β-HSD1 Reductase” value (11β-HSD1 Reductase) is reported as “Selective Inhibitor” and the “11β-HSD1 Dehydrogenase” value (11β-HSD1 Dehydrogenase) is reported as “No Inhibition”.

With `C[C@]12CC[C@H](O)C[C@@H]1CC[C@@H]1[C@@H]2[C@@H](O)C[C@]2(C)[C@@H](C(=O)CO)CC[C@@H]12` [3α,5α-reduced-corticosterone] the “11β-HSD2 Dehydrogenase” value (11β-HSD2 Dehydrogenase) was “Potent Inhibitor”, the “11β-HSD1 Reductase” value (11β-HSD1 Reductase) was “No Inhibition” and the “11β-HSD1 Dehydrogenase” value (11β-HSD1 Dehydrogenase) was “Potent Inhibitor”.

For `C[C@]12CCC(=O)C=C1CC[C@@H]1[C@H]2C(=O)C[C@]2(C)C(=O)CC[C@H]12` (stereo in doubt) [11-Keto-androstenedione], the “11β-HSD2 Dehydrogenase” value (11β-HSD2 Dehydrogenase) was “No Inhibition”, the “11β-HSD1 Reductase” value (11β-HSD1 Reductase) was “Selective Inhibitor” and the “11β-HSD1 Dehydrogenase” value (11β-HSD1 Dehydrogenase) was “No Inhibition”.

For `C[C@]12CC[C@H](O)C[C@@H]1CC[C@@H]1[C@@H]2[C@@H](O)C[C@]2(C)[C@@H](O)CC[C@@H]12` [3α,5α-reduced-11β-OH-testosterone], the “11β-HSD2 Dehydrogenase” value (11β-HSD2 Dehydrogenase) was “Potent Inhibitor (Non-Selective)”, the “11β-HSD1 Reductase” value (11β-HSD1 Reductase) was “No Inhibition” and the “11β-HSD1 Dehydrogenase” value (11β-HSD1 Dehydrogenase) was “Potent Inhibitor (Non-Selective)”.

With `CC(=O)[C@H]1CC[C@H]2[C@@H]3CC[C@H]4C[C@@H](O)CC[C@]4(C)[C@H]3[C@@H](O)C[C@]12C` [3α,5α-reduced-11β-OH-progesterone] the “11β-HSD2 Dehydrogenase” value (11β-HSD2 Dehydrogenase) was “Potent Inhibitor (Non-Selective)”, the “11β-HSD1 Reductase” value (11β-HSD1 Reductase) was “No Inhibition” and the “11β-HSD1 Dehydrogenase” value (11β-HSD1 Dehydrogenase) was “Potent Inhibitor (Non-Selective)”.

In the case of `C[C@]12CC[C@H](O)C[C@@H]1CC[C@@H]1[C@@H]2[C@@H](O)C[C@]2(C=O)[C@@H](C(=O)CO)CC[C@@H]12` [3α,5α-reduced aldosterone], the “11β-HSD2 Dehydrogenase” value (11β-HSD2 Dehydrogenase) is reported as “Potent Inhibitor”, the “11β-HSD1 Reductase” value (11β-HSD1 Reductase) is reported as “No Inhibition” and the “11β-HSD1 Dehydrogenase” value (11β-HSD1 Dehydrogenase) is reported as “Moderate Inhibitor”.

With `C[C@]12CC[C@H](O)C[C@@H]1CC[C@H]1[C@@H]3CC[C@H](C(=O)CO)[C@@]3(C)CC(=O)[C@@H]12` [3α,5α-tetrahydro-11-dehydro-corticosterone] the “11β-HSD2 Dehydrogenase” value (11β-HSD2 Dehydrogenase) was “Potent Inhibitor”, the “11β-HSD1 Reductase” value (11β-HSD1 Reductase) was “Potent Inhibitor” and the “11β-HSD1 Dehydrogenase” value (11β-HSD1 Dehydrogenase) was “No Inhibition”.

In the case of `C[C@]12C[C@H](O)[C@H]3[C@@H](CCC4=CC(=O)CC[C@@]43C)[C@@H]1CC[C@@H]2C(=O)CO` [corticosterone], the “effect of the steroid on contractile responses to graded phenylephrine compared to controls” value (rat aortic rings) is given as “amplified contractile responses”.

In the case of `CC(=O)[C@H]1CC[C@@H]2[C@@H]3CC[C@@H]4C[C@@H](O)CC[C@]4(C)[C@@H]3[C@@H](O)C[C@]12C` [3α,5β-reduced-11β-OH-progesterone], the “11β-HSD2 Dehydrogenase” value (11β-HSD2 Dehydrogenase) is reported as “No Inhibition”, the “11β-HSD1 Reductase” value (11β-HSD1 Reductase) is reported as “No Inhibition” and the “11β-HSD1 Dehydrogenase” value (11β-HSD1 Dehydrogenase) is reported as “Moderate Inhibitor”.

For `CC(=O)[C@H]1CC[C@@H]2[C@@H]3CCC4=CC(=O)CC[C@]4(C)[C@@H]3[C@@H](O)C[C@]12C` [11β-OH-progesterone], the “11β-HSD1 Reductase” value (11β-HSD1 Reductase) was “No Inhibition” and the “11β-HSD1 Dehydrogenase” value (11β-HSD1 Dehydrogenase) was “Potent Inhibitor (Non-Selective)”.

For `C[C@]12CC[C@H](O)C[C@H]1CC[C@@H]1[C@H]2[C@@H](O)C[C@]2(C)C(=O)CC[C@H]12` [3α,5α-reduced-11β-OH-androstenedione], the “11β-HSD2 Dehydrogenase” value (11β-HSD2 Dehydrogenase) was “Potent Inhibitor (Non-Selective)”, the “11β-HSD1 Reductase” value (11β-HSD1 Reductase) was “No Inhibition” and the “11β-HSD1 Dehydrogenase” value (11β-HSD1 Dehydrogenase) was “Moderate Inhibitor”.

For `C[C@]12CCC(=O)C[C@@H]1CC[C@@H]1[C@@H]2[C@@H](O)C[C@]2(C)[C@@H](C(=O)CO)CC[C@@H]12` [5α-dihydro-corticosterone], the “11β-HSD2 Dehydrogenase” value (11β-HSD2 Dehydrogenase) was “Potent Inhibitor”, the “11β-HSD1 Reductase” value (11β-HSD1 Reductase) was “No inhibition” and the “11β-HSD1 Dehydrogenase” value (11β-HSD1 Dehydrogenase) was “Potent Inhibitor”.

For `C[C@]12CC(=O)[C@H]3[C@@H](CCC4=CC(=O)CC[C@@]43C)[C@@H]1CC[C@@H]2O` [11-Keto-testosterone], the “11β-HSD2 Dehydrogenase” value (11β-HSD2 Dehydrogenase) was “No Inhibition”, the “11β-HSD1 Reductase” value (11β-HSD1 Reductase) was “Selective Inhibitor” and the “11β-HSD1 Dehydrogenase” value (11β-HSD1 Dehydrogenase) was “No Inhibition”.

In the case of chenodeoxycholic acid, the “11β-HSD2 Dehydrogenase” value (11β-HSD2 Dehydrogenase) is reported as “No Inhibition”, the “11β-HSD1 Reductase” value (11β-HSD1 Reductase) is reported as “No Inhibition” and the “11β-HSD1 Dehydrogenase” value (11β-HSD1 Dehydrogenase) is reported as “Selective inhibitor”.
